Measurements reported in ChEMBL document CHEMBL4706569, “Hydroxy-corrole and its gallium(III) complex as new photosensitizer for photodynamic therapy against breast carcinoma” (Eur J Med Chem, 2020).
One block for each molecule: values may come before it. Active and inactive are the calls of the source. No cut-off for these calls is given here.

Assays:
[1] = tested on: MDA-MB-231; assay: Induction of apoptosis in human MDA-MB-231 cells assessed as late apoptotic cells at 2.5 uM preincubated for 4 hrs followed by 625 +/- 2 nanometer LED light irradiation for 1 hr and measured after 18 hrs by annexin V-FITC/PI based flow cytometric analysis (reference value: 1.34 %); format: functional; conditions: time 23 hrs
[2] = tested on: MDA-MB-231; assay: Induction of ROS generation in human MDA-MB-231 cells at 2.5 uM preincubated for 4 hrs followed by 625 +/- 2 nanometer LED light irradiation for 1 hr and measured after 18 hrs by DCFH-DA staining based fluorescence microscopy; format: functional, cell-based; conditions: time 23.0 hrs
[3] = tested on: MDA-MB-231; assay: Induction of apoptosis in human MDA-MB-231 cells assessed as early apoptotic cells at 2.5 uM under dark condition by annexin V-FITC/PI based flow cytometric analysis (reference value: 0 %); format: functional
[4] = Absorption property of the compound in DMF assessed as soret band absorption wavelength at 1 uM by UV-visible spectrophotometric method; format: physicochemical
[5] = tested on: MDA-MB-231; assay: Induction of apoptosis in human MDA-MB-231 cells assessed as necrotic cells at 2.5 uM under dark condition by annexin V-FITC/PI based flow cytometric analysis (reference value: 0.36 %); format: functional
[6] = Dark toxicity in human MDA-MB-231 cells assessed as reduction in cell viability by MTT assay; format: cell-based
[7] = tested on: MDA-MB-231; assay: Induction of apoptosis in human MDA-MB-231 cells assessed as viable cells at 2.5 uM preincubated for 4 hrs followed by 625 +/- 2 nanometer LED light irradiation for 1 hr and measured after 18 hrs by annexin V-FITC/PI based flow cytometric analysis (reference value: 98.0 %); format: functional; conditions: MDA-MB-231, light or radiation study, time 23 hrs, read-out: Activity
[8] = Selectivity index, ratio of IC50 for HUVEC in presence of light irradiation to IC50 for human MDA-MB-231 cells in presence of light irradiation; format: toxicity; conditions: HUVEC and MDA-MB-231 cells, read-out: Ratio IC50
[9] = Absorption property of the compound in DMF assessed as soret band wavelength molar absorption coefficient at 1 uM by UV-visible spectrophotometric method; format: physicochemical
[10] = tested on: MDA-MB-231; assay: Induction of cell cycle arrest in human MDA-MB-231 cells assessed as accumulation at sub-G1 phase at 5 uM measured after 24 hrs under dark condition by RNase A/propidium iodide staining based flow cytometry analysis (reference value: 2.56 %); format: functional
[11] = tested on: MDA-MB-231; assay: Induction of cell cycle arrest in human MDA-MB-231 cells assessed as accumulation at G2 phase at 5 uM measured after 24 hrs under dark condition by RNase A/propidium iodide staining based flow cytometry analysis (reference value: 24.4 %); format: functional
[12] = tested on: MDA-MB-231; assay: Induction of cell cycle arrest in human MDA-MB-231 cells assessed as accumulation at S phase at 5 uM measured after 24 hrs under dark condition by RNase A/propidium iodide staining based flow cytometry analysis (reference value: 24.8 %); format: functional
[13] = Drug localization in mitochondria of human MDA-MB-231 cells at 20 uM incubated for 4 hrs by Mito-tracker dye based confocal laser scanning microscopy; format: ADME; conditions: mda-mb-231, 4 h
[14] = Drug uptake in human MDA-MB-231 cells at 10 uM by flow cytometric analysis; format: ADME, cell-based; conditions: mda-mb-231, 10 µM, TDE = time-dependent effect
[15] = tested on: MDA-MB-231; assay: Induction of cell cycle arrest in human MDA-MB-231 cells assessed as accumulation at G1 phase at 5 uM preincubated with 625 +/- 2 nanometer LED light irradiation for 1 hrs and measured after 24 hrs by RNase A/propidium iodide staining based flow cytometry analysis (reference value: 43.6 %); format: functional; conditions: time 25 hrs
[16] = Drug uptake in human MDA-MB-231 cells at 10 uM incubated for 4 hrs by Hoechst 33342 staining based fluorescence microscopy; format: ADME, cell-based; conditions: mda-mb-231, 4 h
[17] = Phototoxicity index, ratio of IC50 for cytotoxicity against human MDA-MB-231 cells measured under dark condition to IC50 for phototoxicity against human MDA-MB-231 cells upon LED light irradiation
[18] = Absorption property of the compound in DMF assessed as soret band molar extinction coefficient at 1 uM by UV-visible spectrophotometric method; format: physicochemical
[19] = tested on: MDA-MB-231; assay: Induction of cell cycle arrest in human MDA-MB-231 cells assessed as accumulation at G2 phase at 5 uM preincubated with 625 +/- 2 nanometer LED light irradiation for 1 hrs and measured after 24 hrs by RNase A/propidium iodide staining based flow cytometry analysis (reference value: 22.1 %); format: functional; conditions: time 25 hrs
[20] = Dark toxicity in HUVEC assessed as reduction in cell viability by MTT assay; format: cell-based; conditions: human
[21] = Dark toxicity in mouse 4T1 cells assessed as reduction in cell viability by MTT assay; format: cell-based
[22] = tested on: MDA-MB-231; assay: Induction of apoptosis in human MDA-MB-231 cells assessed as necrotic cells at 2.5 uM preincubated for 4 hrs followed by 625 +/- 2 nanometer LED light irradiation for 1 hr and measured after 18 hrs by annexin V-FITC/PI based flow cytometric analysis (reference value: 0.41 %); format: functional; conditions: time 23 hrs
[23] = Absorption property of the compound in DMF assessed as Q band molar extinction coefficient at 1 uM by UV-visible spectrophotometric method; format: physicochemical
[24] = Absorption property of the compound in DMF assessed as Q band absorption wavelength at 1 uM by UV-visible spectrophotometric method; format: physicochemical
[25] = tested on: MDA-MB-231; assay: Induction of ROS generation in human MDA-MB-231 cells at 2.5 uM in dark by DCFH-DA staining based fluorescence microscopy; format: functional, cell-based
[26] = tested on: MDA-MB-231; assay: Induction of cell cycle arrest in human MDA-MB-231 cells assessed as accumulation at sub-G1 phase at 5 uM preincubated with 625 +/- 2 nanometer LED light irradiation for 1 hrs and measured after 24 hrs by RNase A/propidium iodide staining based flow cytometry analysis (reference value: 3.93 %); format: functional; conditions: time 25 hrs
[27] = Induction of singlet oxygen generation in DMF solution assessed as singlet oxygen quantum yield at 1 uM irradiated with 625 +/- 2 nanometer laser light by DPBF-based assay; format: functional
[28] = Phototoxicity index, ratio of IC50 for cytotoxicity against mouse 4T1 cells measured under dark condition to IC50 for phototoxicity against mouse 4T1 cells upon LED light irradiation
[29] = tested on: HUVEC; assay: Phototoxicity against HUVEC assessed as reduction in cell viability preincubated for 4 hrs followed by irradiation with 0.3 W/cm2 of 625 +/- 2 nanometer LED light for 1 hr and measured after 42 hrs by MTT assay; format: cell-based; conditions: Homo sapiens, light or radiation study
[30] = tested on: MDA-MB-231; assay: Induction of apoptosis in human MDA-MB-231 cells assessed as early apoptotic cells at 2.5 uM preincubated for 4 hrs followed by 625 +/- 2 nanometer LED light irradiation for 1 hr and measured after 18 hrs by annexin V-FITC/PI based flow cytometric analysis (reference value: 0.27 %); format: functional; conditions: time 23 hrs
[31] = Drug localization in lysosome of human MDA-MB-231 cells at 20 uM incubated for 4 hrs by Lyso-tracker dye based confocal laser scanning microscopy; format: ADME, subcellular; conditions: mda-mb-231, 4 h
[32] = tested on: MDA-MB-231; assay: Induction of cell cycle arrest in human MDA-MB-231 cells assessed as accumulation at G1 phase at 5 uM measured after 24 hrs under dark condition by RNase A/propidium iodide staining based flow cytometry analysis (reference value: 47.5 %); format: functional
[33] = tested on: 4T1; assay: Phototoxicity against mouse 4T1 cells assessed as reduction in cell viability preincubated for 4 hrs followed by irradiation with 0.3 W/cm2 of 625 +/- 2 nanometer LED light for 1 hr and measured after 42 hrs by MTT assay; format: functional, cell-based; conditions: 4T1, light or radiation study
[34] = Phototoxicity index, ratio of IC50 for cytotoxicity against HUVEC measured under dark condition to IC50 for phototoxicity against HUVEC upon LED light irradiation; conditions: human, read-out: Ratio IC50
[35] = tested on: MDA-MB-231; assay: Induction of mitochondrial depolarization in human MDA-MB-231 cells at 2.5 uM preincubated for 4 hrs followed by 625 +/- 2 nanometer LED light irradiation for 1 hr and measured after 18 hrs by JC1 staining based fluorescence microscopy; format: functional, cell-based; conditions: time 23.0 hrs
[36] = tested on: MDA-MB-231; assay: Induction of mitochondrial depolarization in human MDA-MB-231 cells at 2.5 uM in dark by JC1 staining based fluorescence microscopy; format: functional, cell-based
[37] = Absorption property of the compound in DMF assessed as soret band molar attenuation coefficient at 1 uM by UV-visible spectrophotometric method; format: physicochemical
[38] = tested on: MDA-MB-231; assay: Phototoxicity against human MDA-MB-231 cells assessed as reduction in cell viability preincubated for 4 hrs followed by irradiation with 0.3 W/cm2 of 625 +/- 2 nanometer LED light for 1 hr and measured after 42 hrs by MTT assay; format: functional, cell-based; conditions: MDA-MB-231, light or radiation study
[39] = tested on: MDA-MB-231; assay: Induction of cell cycle arrest in human MDA-MB-231 cells assessed as accumulation at S phase at 5 uM preincubated with 625 +/- 2 nanometer LED light irradiation for 1 hrs and measured after 24 hrs by RNase A/propidium iodide staining based flow cytometry analysis (reference value: 29.0 %); format: functional; conditions: time 25 hrs
[40] = tested on: MDA-MB-231; assay: Induction of apoptosis in human MDA-MB-231 cells assessed as late apoptotic cells at 2.5 uM under dark condition by annexin V-FITC/PI based flow cytometric analysis (reference value: 0.67 %); format: functional
[41] = tested on: MDA-MB-231; assay: Induction of apoptosis in human MDA-MB-231 cells assessed as viable cells at 2.5 uM under dark condition by annexin V-FITC/PI based flow cytometric analysis (reference value: 99.0 %); format: functional; conditions: read-out: Activity

- Activity [4]: 427 nm
- Activity [9]: 443 nm
- Drug uptake [13]: Active
- Drug uptake [14]: Tde
- Drug uptake [16]: Active
- Activity [18]: 5.12 log
- Activity [23]: 4.62 log
- Activity [24]: 633 nm
- Drug uptake [31]: Active
- Activity [37]: 5.09 log
SMILES: Oc1ccc(-c2c3nc(c(-c4c(F)c(F)c(F)c(F)c4F)c4ccc([nH]4)c4ccc([nH]4)c(-c4c(F)c(F)c(F)c(F)c4F)c4ccc2[nH]4)C=C3)cc1
- Activity [1]: 30.1%
- Activity [2]: Active
- Activity [3]: 0.013%
- Activity [5]: 0.72%
- IC50 [6]: > 100 µM
- viability at 2.5 µM [7]: 64.5%
- selectivity ratio [8]: 22.2
- Activity [10]: 2.84%
- Activity [11]: 26.1%
- Activity [12]: 23.2%
- Activity [15]: 25.1%
- Ratio IC50 [17]: >238.1
- Activity [19]: 17.5%
- IC50 [20]: > 100 µM
- IC50 [21]: > 100 µM
- Activity [22]: 5.29%
- Activity [25]: inactive
- Activity [26]: 38.6%
- Activity [27]: 0.55
- Ratio IC50 [28]: >333.33
- IC50 [29]: 9.32 µM
- Activity [30]: 0.095%
- Activity [32]: 46.7%
- IC50 [33]: 0.3 µM
- selectivity ratio [34]: > 10.9
- Activity [35]: Active
- Activity [36]: inactive
- IC50 [38]: 0.42 µM
- Activity [39]: 18.1%
- Activity [40]: 1.01%
- viability at 2.5 µM [41]: 98.3%

- Activity [4]: 428 nm
- Activity [9]: 443 nm
- Activity [18]: 5.12 log
- Activity [23]: 4.61 log
- Activity [24]: 633 nm
- Activity [37]: 5.1 log
SMILES: Oc1cccc(-c2c3nc(c(-c4c(F)c(F)c(F)c(F)c4F)c4ccc([nH]4)c4ccc([nH]4)c(-c4c(F)c(F)c(F)c(F)c4F)c4ccc2[nH]4)C=C3)c1
- IC50 [6]: > 100 µM
- selectivity ratio [8]: 0.54
- Ratio IC50 [17]: >60.98
- IC50 [20]: > 100 µM
- IC50 [21]: > 100 µM
- Activity [27]: 0.46
- Ratio IC50 [28]: >175.44
- IC50 [29]: 0.89 µM
- IC50 [33]: 0.57 µM
- selectivity ratio [34]: > 112
- IC50 [38]: 1.64 µM

SMILES: Oc1cccc(-c2c3nc(c(-c4cccc(O)c4)c4ccc([nH]4)c(-c4cccc(O)c4)c4nc(c(-c5cccc(O)c5)c5ccc2[nH]5)CC4)C=C3)c1 [TEMOPORFIN]
- IC50 [6]: 33.4 µM
- selectivity ratio [8]: 1.72
- Ratio IC50 [17]: 38.41
- IC50 [20]: > 100 µM
- IC50 [21]: 38 µM
- Ratio IC50 [28]: 760.2
- IC50 [29]: 1.5 µM
- IC50 [33]: 0.05 µM
- selectivity ratio [34]: > 66.7
- IC50 [38]: 0.87 µM

- Activity [4]: 425 nm
- Activity [9]: 441 nm
- Activity [18]: 5.11 log
- Activity [23]: 4.57 log
- Activity [24]: 629 nm
- Activity [37]: 5.08 log
SMILES: Oc1ccccc1-c1c2nc(c(-c3c(F)c(F)c(F)c(F)c3F)c3ccc([nH]3)c3ccc([nH]3)c(-c3c(F)c(F)c(F)c(F)c3F)c3ccc1[nH]3)C=C2
- IC50 [6]: 50.8 µM
- selectivity ratio [8]: 0.82
- Ratio IC50 [17]: 8.75
- IC50 [20]: > 100 µM
- IC50 [21]: > 100 µM
- Activity [27]: 0.45
- Ratio IC50 [28]: >217.39
- IC50 [29]: 4.75 µM
- IC50 [33]: 0.46 µM
- selectivity ratio [34]: > 21.1
- IC50 [38]: 5.81 µM
